Reference: US20150366839A1, “Schisantherin A for the treatment of neurodegenerative diseases” (priority 2014, published 2015)
pEC50: −log10 of the molar value. Like-named read-outs stand apart in the source and are kept apart here.

Legend:
[1] = tested on: SH-SY5Y cells; assay: MTT neuroprotection against MPP+-induced cell damage; assay type: cell-based; conditions: for protection against MPP+-induced cell damage (cell viability): various concentrations 12 h before MPP+
Procedure: (§1) Human neuroblastoma SH-SY5Y cells were purchased from the American Type Culture Collection (ATCC, Manassas, Va., USA) and cultured in a humidified 5% (v/v) CO2 atmosphere in 37° C. in Dulbecco's Modified Eagle Medium (DMEM) (Life technologies, NY, USA) supplemented with 10% FBS, 1% penicillin (100 U/mL) and streptomycin (100 μg/mL). All experiments were carried out 48 h after the cells were seeded.
In another study, SH-SY5Y cells were seeded in 96-well plates (1×10^4 cells/well) for 48 h. SH-SY5Y cells were pre-treated with different concentrations of the five lignans for 12 h and the cell viability was checked by MTT assay. SH-SY5Y cells were pre-treated with different concentrations of the five lignans for 12 h and then exposed to 2 mM MPP or vehicle for 36 h. Cells were incubated at 37° C. for 4 h in 0.5 mg/mL MTT solution (prepared in serum free DMEM medium). The medium was then discarded and 100 μL of DMSO was added to each well to dissolve the violet-formazan crystals. The absorbance at 570 nm with 655 nm as a reference wavelength was measured by a multi-label counter (Wallac VICTOR3TMV, Perkin Elmer, Netherlands). Cell viability was expressed as a percentage of the value of the cells without MPP treatment. The LC50 and EC50 were calculated by GraphPad Prism V5.0 (GraphPad Software, Inc., San Diego, Calif.).
(§2) To evaluate the cytotoxicity of five selected lignans of S. chinensis, SH-SY5Y cells were treated with various concentrations of the tested compounds for 12 h and the cell viability was measured using the MTT assay. […] To further study the neuroprotective activities of the five lignans in vitro, cells were treated with various concentrations of the tested compounds for 12 h before exposed to MPP^+. […] Values represent mean±S.D. ###P<0.005 versus control group; *p<0.05, **p<0.01 and *** p<0.005 versus MPP group. […] The therapeutic index of SchiA and SC were 14.9 and 8.8, respectively.
The inventors also investigated the contribution of the PI3K/Akt pathway in the neuroprotective effects of SchiA. The inventors measured phosphorylation-Akt (p-Akt) levels after pre-treated with 60 μM SchiA for 12 h and then exposed to 2 mM MPP for another 36 h. […] And MPP^+-induced down-regulation of Akt expressions was inhibited by SchiA treatment. […] To further validate whether the activation of PI3K/Akt signaling pathway, the inventors determined the blocking effect of PI3K/Akt inhibitor such as AKT inhibitor IV on the in vitro neuroprotective effect of SchiA. SH-SY5Y cells were pre-incubated with Akt inhibitor IV (2 μM) for 1 h and then treated with SchiA for 12 h. Drug-treated cells were further treated with 2 mM MPP for another 36 h, MTT assay was used to determinate cell viability.

[2] = tested on: DA neurons in zebrafish; assay: Anti-TH whole-mount immunostaining, 6-OHDA-induced DA neuron loss; assay type: in vivo; conditions: 3 μM positive control, 250 μM 6-OHDA, 2 days
Procedure: (§3) The wild type zebrafish was used for this study.
Zebrafish at one dpf were exposed to 250 μM 6-OHDA in the presence or absence of 10 μM Schi A or 3 μM nomifensine (Nom, a DAT (dopamine transporter) inhibitor used as a positive control) for 2 days. Then zebrafish were collected for immunostaining to detect the DA neurons. Zebrafish were fixed in 4% paraformaldehyde in PBS for 30 min, rinsed, and stored at −20° C. in 100% MtOH. Whole-mount immunostaining was done by standard methods (Zhang, Cheang et al. 2011). Briefly, paraformaldehyde fixed samples were blocked (2% goat serum and 0.1% BSA in PBST,) for 1 h at room temperature. A mouse monoclonal anti-tyrosine hydroxylase antibody (1:200 diluted in blocking buffer) was used as the primary antibody and incubated overnight with the sample at 4° C. […] Semi-quantification TH^+ cells were assessed by an investigator blinded to drug treatment history of zebrafish using Image-Pro Plus 6.0 software (Media Cybernetics, Silver Spring, Md., USA). Results are expressed as percentage of area of TH^+ cells in untreated control group.
To further evaluate the neuroprotective effect of SchiA in vivo, the inventors examined the DA neurons in zebrafish by whole-mount immunofluorescent staining with an antibody against tyrosine hydroxylase (TH). […] Data is expressed as percentage of the control group. […]

[3] = tested on: zebrafish larvae; assay type: in vivo
Procedure: as §3
Zebrafish behaviour was analyzed using a digital video tracking system (Viewpoint ZebraLab system). The system consists of a digital video camera connected to a computer system running the analysis software ZebraLab Man Rev 3.6B.
Moreover, 6-OHDA treatment also markedly altered the swimming behavior of zebrafish. […] Values in FIG. 9 represent the mean±SEM of 12 fish larvae per group of 3-time independent experiments. ###P<0.005 versus control group; *p<0.05, **p<0.01 and *** p<0.005 versus 6-OHDA group. […] The total swimming distance in 10 min travelled by the zebrafish larvae was decreased after exposure to 6-OHDA.

[4] = tested on: SH-SY5Y cells; assay: MTT cytotoxicity of the five lignans; assay type: cell-based
Procedure: as §1
(§4) Cell viability was determined by 3-(4,5-dimethyl-2-thiazolyl) 2,5-diphenyl-2H-tetrazolium bromide (MTT) assay (Sigma-Aldrich, USA). SH-SY5Y cells were seeded in 96-well plates (1×10^4 cells/well) for 48 h. SH-SY5Y cells were pre-treated with different concentrations of the five lignans (i.e. Schizandrin A, Schizandrin B, SC, Schizandrol A and SchiA) for 12 h and the cell viability was checked by MTT assay. Otherwise, SH-SY5Y cells were pre-treated with different concentrations of the five lignans for 12 h and then exposed to 400 μM 6-OHDA for 4 h. Cells were incubated at 37° C. for 4 h in 0.5 mg/mL MTT solution (prepared in serum free DMEM medium). The medium was then removed, and 100 μL of DMSO was added to each well to dissolve the violet-formazan crystals. The absorbance at 570 nm with 655 nm as a reference wavelength was measured by a multi-label counter (Wallac VICTOR3TMV, Perkin Elmer, Netherlands). Cell viability was expressed as a percentage of the value of the cells without 6-OHDA treatment. The LC50 and EC50 were calculated by GraphPad Prism V5.0 (GraphPad Software, Inc., San Diego, Calif.).
To evaluate the cytotoxicity of five selected lignans of S. chinensis, SH-SY5Y cells were treated with various concentrations of the tested compounds for 12 h and the cell viability was measured using the MTT assay.
as §2

[5] = tested on: SH-SY5Y cells; assay: MTT neuroprotection against 6-OHDA-induced cytotoxicity; assay type: cell-based, Human; conditions: for protection against 6-OHDA-induced damage (cell viability): 3, 6, 12, 25, 50 and 100 μM for 12 h before 400 μM 6-OHDA 4 h
Procedure: as §1, §4
To further study the neuroprotective activities of the five lignans against 6-OHDA-induced cytotoxicity, cells were treated with various concentrations (3, 6, 12, 25, 50 and 100 μM) of the tested compounds for 12 h before exposed to 400 μM 6-OHDA for 4 h.

[6] = tested on: TH-positive neurons in the SNpc; assay type: in vivo, C57BL/6 mice; conditions: 10 mg/kg/day i.g. positive control, then MPTP
Procedure: Male C57BL/6 mice (20±2 g body weight, 6-8 weeks of age) were purchased from the Laboratory Animal Center of Guangdong Province and were fed six animals per cage, under a 12 h light/dark cycle with ad libitum access to food and water. Mice were handled daily and allowed 3 days to acclimate before each treatment. Six groups of mice (n=7/group, total 42 mice) were assigned for the neuroprotective study in vivo. SchiA at different concentrations (30, 100 or 300 mg/kg/day), positive control drug (Selegiline, 10 mg/kg/day) or vehicle (Tween-80/ml propylene glycol/alcohol/5% PVA, 1:1:1:17, v/v/v/v) were administered by intragastric gavage (i.g.) daily for 14 days. Then mice were injected by intraperitoneal (i.p.) with 30 mg/kg MPTP hydrochloride (Sigma-Aldrich) or physiological saline daily on days 15-19 (total 5 days). In order to allow for the full conversion of MPTP to its active metabolite MPP^+, a further 3 days of resting period followed (Levites, Weinreb et al. 2001). All animal experiments were conducted according to the ethical guidelines for animal experiment of Jinan University. The experimental protocols were approved by the Ethics Committee for Animal Experiments of Jinan University (permit number 20110810).
Three days after MPTP treatment, animals were anesthetized by i.p. administration of […] chloral hydrate (10% (w/v) dissolved in distilled water) and perfused intracardially with 100 mL PBS (0.1 mmol/L, pH 7.4) followed by 150 mL 4% paraformaldehyde (PFA) in PBS. After intracardial perfusion, brains were collected and post-fixed in 4% PFA for another 24 h at 4° C., embedded in paraffin, and cut into 6 μm coronal sections encompassing the entire SNpc. As the decrease of TH-positive neurons in response to MPTP treatment is the most prominent at medial levels of the SNpc (Hayley, Crocker et al. 2004), the inventors selected the sections from the area encompassed between −3.08 and −3.20 from bregma to perform immunohistochemisty. Immunohistochemistry of brain tissues was performed as previously described (He, Yamauchi et al. 2008; Yokoyama, Takagi et al. 2008) with minor modifications. Sections were deparaffinized in xylene and rehydrated in a graded ethanol series. […] Non-specific protein binding was blocked with 10% bovine serum in PBS (0.01 M, pH 7.4). Between each treatment, the slides were washed at least three times with deionized water for 5 minutes. […] The results were analyzed by counting the numbers of TH-positive cells at ×10 magnifications on a stereomicroscope (BX51, Olympus Corp. Japan). TH-positive cells in 6 position-matched sections of each mouse were counted manually by operator who was blinded to the drug treatment. […]

Row | Compound | protection against 6-OHDA-induced damage (cell viability) [5] | protection against MPP+-induced cell damage (cell viability) [1] | CC50 [4] [µM] | also measured
1 | AKT inhibitor IV [reference compound] |  |  |  | effect on the protective effect of SchiA on MPP+-induced cytotoxicity ([1]; 2 μM 1 h pre-incubation, then SchiA 12 h, 2 mM MPP+ 36 h, MTT): clearly abrogate the protective effect of SchiA
2 | CN1Cc2c(N)cccc2C(c2ccccc2)C1 (stereo not shown) [Nomifensine, nomifensine, reference compound] |  |  |  | 6-OHDA-induced dopaminergic neuron loss (area of TH+ cells) [2]: considerable protection; deficit of locomotor activity of 6-OHDA-treated zebrafish ([3]; 3 μM positive control with 6-OHDA): rescued the deficit of locomotor activity of 6-OHDA-treated zebrafish to normal
3 | N[C@@H](Cc1ccc(O)c(O)c1)C(=O)O [L-dopa] |  |  |  | deficit of locomotor activity of 6-OHDA-treated zebrafish ([3]; 150 μM positive control with 6-OHDA): rescued the deficit of locomotor activity of 6-OHDA-treated zebrafish to normal
4 | COc1c2c(cc3c1-c1c(cc4c(c1OC)OCO4)C[C@H](C)[C@H](C)C3)OCO2 [SC, Schizandrin C] | protected SH-SY5Y cells against 6-OHDA-induced damage in a dose-dependent manner | protect against MPP^+-induced cell damage in a dose-dependent manner |  | CC50 ([4]; treated 12 h, MTT, read-out: LC50 (the source's name)): 135 µM; pEC50 ([5]; pre-treated 12 h, then 400 μM 6-OHDA 4 h): 4.82; pEC50 ([1]; pre-treated 12 h, then 2 mM MPP+ 36 h): 4.82
5 | COc1cc2c(c(OC)c1OC)-c1c(cc(OC)c(OC)c1OC)C[C@H](C)[C@H](C)C2 [Schizandrin A, reference compound] | did not show protective effects | did not show protective effects | 233 | 
6 | COc1cc2c(c(OC)c1OC)-c1c(cc(OC)c(OC)c1OC)C[C@](C)(O)[C@@H](C)C2 [Schizandrol A, reference compound] | did not show protective effects | did not show protective effects | 155 | 
7 | COc1cc2c(c(OC)c1OC)-c1c(cc3c(c1OC)OCO3)CC(C)C(C)C2 (stereo not shown) [Schizandrin B, reference compound] | did not show protective effects | did not show protective effects | 189 | 
8 | C#CCN(C)[C@H](C)Cc1ccccc1 [selegiline, reference compound] |  |  |  | TH-positive neurons in SNpc [6]: 80±15 cells/section
